According to patent publication US20220259172A1, “CHEMICAL INHIBITORS OF ID PROTEINS FOR THE TREATMENT OF CANCER AND OTHER DISEASES” (Universität Heidelberg, priority 2019, published 2022):
“Also recorded” adds a separate entry of the source.

How the values were obtained:
Id3 [1] = experiment: Compound screen: BMP4-induced Id3 expression, Western blot; assay type: cell-based, murine; conditions: B16-F10 and Ret cells, BMP4 10 ng/ml and compound simultaneously, 24 h, rated relative to CBD
Protocol: (§1) To screen compounds with an inhibitory effect on Id1 and Id3 expression, cells were simultaneously stimulated with BMP4 (10 ng/ml, 315-27, Peprotech) and substances at the indicated concentrations for 24 h. DMSO served as a solvent control. Effects on Id1 and Id3 expression levels were analysed by Western blotting.
(§2) Western blot analysis was performed using standard methods. The following antibodies were used for protein detection: Id1 (195-14, CalBioreagents), Id3 (17-3, CalBioreagents), β-actin (AC-15, Sigma Aldrich), Vinculin (VIN-11-5, Sigma Aldrich). Protein bands were detected using HRP conjugated secondary antibodies (P0447, P0448, Agilent Technologies) and enhanced chemiluminescence (32106, Thermo Fisher Scientific).
(§3) B16-F10 and Ret melanoma cells were treated with BMP4 to induce Id1 and Id3 expression, and simultaneously treated with each of the compounds individually for a 24 h period.

B16-F10 melanoma cells = experiment: Tumor growth and initiation in vivo, B16-F10; design: species or system mice
From the text: B16-F10 (A) or Ret (B) cells were co-injected with Matrigel into syngeneic mice. […] Numbers indicate the number of animals with a tumor in each group. Bar graphs show the mean tumor volume in each group at the day when the first animal had reached the legal tumor size limit. Kaplan-Meier curves show the percentage of tumor-free animals in percent as a measure for tumor initiation.
Cells were harvested using trypsin/EDTA and washed in PBS. The indicated numbers of living melanoma cells were subcutaneously injected into the flank of syngeneic mice in 100 μl PBS. For co-injection experiments, the indicated number of living cells was resuspended in 100 μl Matrigel HC (10 mg/ml, #354262, Corning Inc.), and subcutaneously injected into the flank. Tumor volume was calculated using the formula 4/3π (d1/2×d2/2×d3/2), where d1−d3 represents the diameter of the tumor in three dimensions. […] All animal experiments were approved by the local authorities, and performed according to the German legal requirements. Tumor initiating cell (TIC) frequency and p-values were calculated using ELDA software.
To investigate the anti-tumor properties of the selected Id1/Id3-inhibiting compounds, groups of experimental mice (8 per group) were injected subcutaneously with B16-F10 or Ret melanoma cells. […] Melanoma initiation and growth was assessed over a period of 90 days.

Id1 [2] = experiment: Compound screen: BMP4-induced Id1 expression, Western blot; assay type: cell-based, murine; conditions: B16-F10 and Ret cells, BMP4 10 ng/ml and compound simultaneously, 24 h, rated relative to CBD
Protocol: as §1, §2, §3

[3] = system: mouse embryonic fibroblasts (MEFs); experiment: Proliferation/cytotoxicity in mouse embryonic fibroblasts, 2D culture; assay type: cell-based
LEC spheroids = experiment: Sprouting from LEC spheroids in collagen; assay type: cell-based; conditions: X6632 10 μM; 50 ng/ml hVEGF-A; 24 h; collagen type I
Protocol: (§4) HUVECs or LECs were resuspended in endothelial cell growth medium containing 20% methylcellulose at 1.6×10^4 cells per millilitre. Twenty-five microliters of cell suspension were pipetted as drops on non-adherent plastic plates, which were then inverted to form hanging drop cultures. Plates were incubated for 24 h at 37° C. Spheroids were harvested, then embedded in collagen type I (2 mg/ml) containing 0.5% methylcellulose. After polymerization, gels were cultivated with endothelial cell growth medium containing 50 ng/ml hVEGF-A in the presence or absence of X6632 (10 μM), or DMSO as a solvent control. Sprouting was assessed after cultivation for 24 h using microscope-based image acquisition. Representative images are shown.
(§5) To determine whether this is the case, the impact of […] on angiogenic and lymphangiogenic sprouting from endothelial cell spheriods was investigated. To this end, HUVECs and LECs were grown as spheriods in hanging drop cultures. The spheroids were then embedded in collagen. Sprouting from the spheroids in the presence and absence of X6632 was monitored using microscope-based image analysis.

Id1 [4] = experiment: Id1 expression in LECs, Western blot; assay type: cell-based; conditions: indicated concentrations, 24 hours (FIG. 10B)
Protocol: (§6) Human umbilical vein endothelial cells (HUVECs) and lymphatic endothelial cells (LECs) were cultivated in EBM™-2 Endothelial Cell Growth Basal Medium supplemented with EGM™-2 MV Microvascular Endothelial Cell Growth Medium-2 SingleQuots™ Kit (both Lonza, catalogue numbers CC-3156 and CC4176, respectively), hereafter referred to as endothelial cell growth medium. HUVECs and LECs were cultivated in the presence of the indicated concentrations of X6632, or with DMSO as a solvent control. After 24 hours, cells were harvested. Lysates were western blotted and probed with antibodies against Id1 and Id3. Western blots probed with vinculin antibodies served as loading controls.
as §2
(§7) The effect of X6632 on Id1 and Id3 expression in cultivated proliferating human umbilical vein endothelial cells (HUVECs) was investigated. […] LDN-193189, an antagonist of BMP receptor isotypes ALK2 and ALK3, served as a positive control reference for inhibition of Id1 and Id3 expression.

Id3 [5] = experiment: Id3 expression in LECs, Western blot; assay type: cell-based; conditions: indicated concentrations, 24 hours (FIG. 10B)
Protocol: as §6, §2, §7

LECs = experiment: LEC proliferation, CyQUANT assay; assay type: cell-based; conditions: dose-dependent manner (FIG. 11)
Protocol: HUVECs (A) and LECs (B) were cultivated in endothelial cell growth medium. Cells were incubated with the indicated concentrations of X6632. Incubation with DMSO served as a solvent control. After cultivation for the indicated time periods, cells were stained with a CyQUANT™ Cell Proliferation Assay Kit (Thermo Fisher Scientific). The CyQUANT™ dye emits fluorescence after excitation at 485 nm when incorporated in double-stranded DNA, allowing DNA content to be used as a measure of cell numbers. Plates were incubated for 15 min at 37° C. to allow the CyQUANT™ dye to incorporate into DNA. Fluorescence was measured by excitation at 485 nm and detection of emission at 530 nm at 25 positions in each well (signal intensity) using a Tecan Infinite M200 reader.

HUVEC spheroids = experiment: Sprouting from HUVEC spheroids in collagen; assay type: cell-based, Human; conditions: X6632 10 μM; 50 ng/ml hVEGF-A; 24 h; collagen type I
Protocol: as §4, §5

Id3 [6] = experiment: Id3 expression in HUVECs, Western blot; assay type: cell-based, Human
Protocol: as §6, §2, §7

## CCCCc1cc2c(O)cc(C3(CCCC)CCCCC3)cc2oc1=O [X6632, 7-(1-Butylcyclohexyl)-5-hydroxy-3-butyl-2H-chromen-2-one]
Id3 [1]
  Inhibitory effect on Id3 protein expression: more potent
Id3 [1]; listed as X 6632
  Inhibitory effect on Id3 protein expression: strongest inhibitory activities
B16-F10 melanoma cells; B16-F10 cells co-injected with Matrigel, syngeneic mice, daily i.p. first 14 days, compared to DMSO
  Melanoma growth and initiation: significantly inhibit; also recorded: potent inhibitors
B16-F10 melanoma cells; B16-F10 cells, 8 mice per group, assessed over 90 days
  Number of animals with tumors: three
B16-F10 melanoma cells; B16-F10 experiment, daily i.p. first 14 days
  Tumor growth and initiation compared to CBD: significantly more effective
Id1 [2]
  Inhibitory effect on Id1 protein expression: more potent
Id1 [2]; listed as X 6632
  Inhibitory effect on Id1 protein expression: strongest inhibitory activities
[3]
  Proliferation / cytotoxicity, non-transformed MEFs: strongly inhibited
LEC spheroids
  Sprouting from LEC spheroids: substantially inhibited
Id1 [4]
  Expression of Id1 protein: inhibits
Id3 [5]
  Expression of Id3 protein: inhibits
LECs
  Proliferation of LECs: inhibited
HUVEC spheroids
  Sprouting from HUVEC spheroids: substantially inhibited
Id3 [6]; HUVECs, indicated concentrations, 24 hours (FIG. 10B)
  Expression of Id3 protein: inhibits
Id3 [6]; proliferating HUVECs, 24 hours (FIG. 10A)
  Id3 protein expression: completely abrogated
